Where two headings read alike, the source gives them in different places.
Key:
Test in all cases: Test A postemergence
Format in all cases: in vivo
[1] = test system: blackgrass (Alopecurus myosuroides); details: Alopecurus myosuroides, post-emergence, 240 h; for pest or weed control at 125 g/ha: 125 g ai/ha; for pest or weed control at 500 g/ha: 500 g ai/ha
How it was run: (§1)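 Each rating is a visual injury score from 0 to 100 given about 10 d after treatment, judged against untreated controls kept alongside in the greenhouse. In loam soil–sand blend, seeds got a preemergence directed soil spray, while postemergence plants were 2 to 10 cm tall at spraying.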

corn (Zea mays) = details: Zea mays, post-emergence, 240 h; for Corn plant response rating (crop injury, 0 = no effect, 100 = complete kill) at 125 g/ha / plant injury at 125 g/ha: 125 g ai/ha; for Corn plant response rating (crop injury, 0 = no effect, 100 = complete kill) at 125 g/ha: Postemergence, visual injury after approximately 10 d, 0 to 100 scale where 0 is no effect and 100 is complete control; for Corn plant response rating (crop injury, 0 = no effect, 100 = complete kill) at 500 g/ha: visual injury, 0 to 100 scale (0 no effect, 100 complete control); for Corn plant response rating (crop injury, 0 = no effect, 100 = complete kill) at 500 g/ha / plant injury at 125 g/ha: approx. 10 d; for plant injury at 125 g/ha: visual injury on 0 to 100 scale (0 no effect, 100 complete control)
How it was run: as §1

[2] = test system: Galium (catchweed bedstraw, Galium aparine); details: Galium, post-emergence, 240 h, postemergence; for pest or weed control at 125 g/ha: 125 g ai/ha, visual injury on 0 to 100 scale (0 no effect, 100 complete control); for pest or weed control at 500 g/ha: 500 g ai/ha
How it was run: as §1

[3] = test system: pigweed (Amaranthus retroflexus); details: Amaranthus retroflexus, post-emergence, 240 h, postemergence; for pest or weed control at 125 g/ha: 125 g ai/ha, visual injury on 0 to 100 scale (0 no effect, 100 complete control); for pest or weed control at 500 g/ha: 500 g ai/ha
How it was run: as §1

[4] = test system: ragweed (common ragweed, Ambrosia elatior); details: Ambrosia artemisiifolia, post-emergence, 240 h, postemergence; for pest or weed control at 125 g/ha: 125 g ai/ha, visual injury on 0 to 100 scale (0 no effect, 100 complete control); for pest or weed control at 500 g/ha: 500 g ai/ha
How it was run: as §1

[5] = test system: ryegrass, Italian (Italian ryegrass, Lolium multiflorum); details: Lolium multiflorum, post-emergence, 240 h, postemergence; for pest or weed control at 125 g/ha: 125 g ai/ha, visual injury on 0 to 100 scale (0 no effect, 100 complete control); for pest or weed control at 500 g/ha: 500 g ai/ha
How it was run: as §1

[6] = Postemergence, visual injury after approximately 10 d, 0 to 100 scale where 0 is no effect and 100 is complete control, read-out: Plant response rating, Blackgrass
[7] = postemergence, visual injury, 0 to 100 scale (0 no effect, 100 complete control), approx. 10 d, read-out: Plant response rating, Blackgrass
[8] = approx. 10 d, read-out: Galium plant response rating
[9] = visual injury, 0 to 100 scale (0 no effect, 100 complete control), approx. 10 d, read-out: Plant response rating, Galium
[10] = approx. 10 d, read-out: Pigweed plant response rating
[11] = visual injury, 0 to 100 scale (0 no effect, 100 complete control), approx. 10 d, read-out: Plant response rating, Pigweed
[12] = approx. 10 d, read-out: Ragweed plant response rating
[13] = visual injury, 0 to 100 scale (0 no effect, 100 complete control), approx. 10 d, read-out: Plant response rating, Ragweed
[14] = approx. 10 d, read-out: Ryegrass, Italian plant response rating
[15] = visual injury, 0 to 100 scale (0 no effect, 100 complete control), approx. 10 d, read-out: Plant response rating, Ryegrass, Italian
[16] = postemergence, visual injury on 0 to 100 scale (0 no effect, 100 complete control), approx. 10 d, read-out: Blackgrass plant response rating
[17] = postemergence, read-out: Corn plant response rating

SMILES | pest or weed control at 125 g/ha [1, 6] [%] | pest or weed control at 500 g/ha [1, 7] [%] | Corn plant response rating (crop injury, 0 = no effect, 100 = complete kill) at 125 g/ha (corn (Zea mays)) [%] | Corn plant response rating (crop injury, 0 = no effect, 100 = complete kill) at 500 g/ha (corn (Zea mays); 500 g ai/ha, postemergence) [%] | pest or weed control at 125 g/ha [2, 8] [%] | pest or weed control at 500 g/ha [2, 9] [%] | pest or weed control at 125 g/ha [3, 10] [%] | pest or weed control at 500 g/ha [3, 11] [%] | pest or weed control at 125 g/ha [4, 12] [%] | pest or weed control at 500 g/ha [4, 13] [%] | pest or weed control at 125 g/ha [5, 14] [%] | pest or weed control at 500 g/ha [5, 15] [%] | pest or weed control at 125 g/ha [1, 16] [%] | plant injury at 125 g/ha (corn (Zea mays); [17]) [%] | pest or weed control at 500 g/ha ([1]; postemergence, 0 to 100 scale, 0 is no effect, 100 is complete control, read-out: Blackgrass plant response rating) [%] | plant injury at 500 g/ha (corn (Zea mays); 500 g ai/ha, postemergence, 0 to 100 scale, 0 is no effect, 100 is complete control, read-out: Corn plant response rating) [%] | pest or weed control at 500 g/ha ([2]; 0 to 100 scale, 0 is no effect, 100 is complete control, read-out: Galium plant response rating) [%] | pest or weed control at 500 g/ha ([3]; 0 to 100 scale, 0 is no effect, 100 is complete control, read-out: Pigweed plant response rating) [%] | pest or weed control at 500 g/ha ([4]; 0 to 100 scale, 0 is no effect, 100 is complete control, read-out: Ragweed plant response rating) [%] | pest or weed control at 500 g/ha ([5]; 0 to 100 scale, 0 is no effect, 100 is complete control, read-out: Ryegrass, Italian plant response rating) [%]
Cc1ccc([C@H]2CNC(=O)[C@@H]2C(=O)Nc2ccccc2F)cc1C [Compound 1033] | 0 | 40 | 0 | 40 | 40 | 60 | 0 | 0 | 0 | 30 | 0 | 20 | – | – | – | – | – | – | – | –
Cc1ccc([C@H]2CNC(=O)[C@@H]2C(=O)Nc2cccc(F)c2C)cc1C [Compound 1035] | 40 | 60 | 50 | 60 | 20 | 50 | 0 | 0 | 0 | 0 | 40 | 60 | – | – | – | – | – | – | – | –
CSc1ccccc1NC(=O)[C@H]1C(=O)NC[C@@H]1c1ccc(C)c(C)c1 [Compound 1036] | 0 | 0 | 0 | 20 | 20 | 30 | 0 | 0 | 0 | 10 | 0 | 60 | – | – | – | – | – | – | – | –
Cc1cc([C@H]2CNC(=O)[C@@H]2C(=O)Nc2cccc(F)c2F)ccc1C(F)(F)F [Compound 1040] | 60 | 70 | 60 | 80 | 50 | 70 | 40 | – | 0 | – | 30 | – | – | – | – | – | – | – | – | –
Cc1cc([C@H]2CNC(=O)[C@@H]2C(=O)Nc2ccccc2S(C)(=O)=O)ccc1C(F)(F)F [Compound 1041] | – | 40 | – | 30 | 40 | 60 | 0 | – | 0 | – | 0 | – | 0 | 0 | – | – | – | – | – | –
CN1C[C@H](c2cc(F)cc(F)c2)[C@@H](C(=O)Nc2ncccc2Cl)C1=O [Compound 1097] | – | – | – | – | 0 | – | 0 | – | 0 | – | 0 | – | 0 | 0 | 0 | 0 | 0 | 0 | 0 | 0

Source: patent US12077503B2, “Substituted cyclic amides and their use as herbicides” (FMC CORPORATION, priority 2015, dated 2024)
